Reference: article PMC6331912, “7-Methoxytacrine-p-Anisidine Hybrids as Novel Dual Binding Site Acetylcholinesterase Inhibitors for Alzheimer’s Disease Treatment” (Molecules, 2015)

Columns and labels:
Format in all cases: biochemical
[1] = target: T1, human recombinant acetylcholinesterase (hAChE) (Homo sapiens, UniProt P22303); experiment: biochemical; settings: for IC50: mean of at least three experiments, substrate ATCh, pH 7.4, 37 °C, read-out: hAChE IC50 ± SEM; for Selectivity for hAChE: ratio hBChE IC50/hAChE IC50; for fold weaker inhibitor of hAChE compared to tacrine: ratio of IC50 to tacrine
T1 construct: purchased Sigma-Aldrich (Prague, Czech Republic)
T1 sequence (P22303 32-614): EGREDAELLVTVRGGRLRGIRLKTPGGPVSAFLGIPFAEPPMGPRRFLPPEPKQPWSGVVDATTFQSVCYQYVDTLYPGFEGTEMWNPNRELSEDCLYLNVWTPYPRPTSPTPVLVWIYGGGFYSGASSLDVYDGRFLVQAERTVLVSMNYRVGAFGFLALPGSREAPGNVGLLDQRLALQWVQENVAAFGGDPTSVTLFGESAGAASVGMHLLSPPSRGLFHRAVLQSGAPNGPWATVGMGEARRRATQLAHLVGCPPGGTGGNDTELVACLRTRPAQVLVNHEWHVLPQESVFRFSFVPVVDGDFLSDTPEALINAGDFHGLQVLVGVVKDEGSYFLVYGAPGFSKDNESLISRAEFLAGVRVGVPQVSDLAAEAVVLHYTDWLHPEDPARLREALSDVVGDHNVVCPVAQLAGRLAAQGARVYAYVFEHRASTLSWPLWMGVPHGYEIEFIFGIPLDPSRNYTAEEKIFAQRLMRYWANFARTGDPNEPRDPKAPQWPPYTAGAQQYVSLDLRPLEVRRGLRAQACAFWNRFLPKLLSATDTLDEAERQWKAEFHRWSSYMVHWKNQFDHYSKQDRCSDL

[2] = target: human plasma butyrylcholinesterase (hBChE) (Homo sapiens, UniProt P06276); experiment: biochemical; settings: for IC50: mean of at least three experiments, substrate BTCh, pH 7.4, 37 °C, read-out: hBChE IC50 ± SEM; for fold weaker inhibitor of hBChE related to tacrine: ratio of IC50 to tacrine
Chain of human plasma butyrylcholinesterase (hBChE) (P06276 29-602): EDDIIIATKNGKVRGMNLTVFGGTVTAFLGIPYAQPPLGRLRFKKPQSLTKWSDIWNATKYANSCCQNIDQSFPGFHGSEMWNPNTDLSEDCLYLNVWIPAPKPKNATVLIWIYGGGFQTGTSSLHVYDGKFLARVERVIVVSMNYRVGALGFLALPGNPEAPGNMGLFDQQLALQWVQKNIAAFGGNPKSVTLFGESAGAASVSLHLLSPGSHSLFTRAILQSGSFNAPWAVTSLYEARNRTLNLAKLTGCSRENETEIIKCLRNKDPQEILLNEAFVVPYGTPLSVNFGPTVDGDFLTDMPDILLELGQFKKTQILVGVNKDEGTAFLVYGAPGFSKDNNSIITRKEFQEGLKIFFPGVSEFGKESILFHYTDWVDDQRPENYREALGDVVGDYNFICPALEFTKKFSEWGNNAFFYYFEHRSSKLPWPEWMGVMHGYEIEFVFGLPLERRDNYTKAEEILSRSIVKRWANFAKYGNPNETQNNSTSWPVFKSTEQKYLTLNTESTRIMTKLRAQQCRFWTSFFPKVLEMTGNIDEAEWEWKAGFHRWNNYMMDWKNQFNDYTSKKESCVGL

AChE = target: T2, AChE (Homo sapiens, UniProt P22303); experiment: Kinetic study of AChE inhibition (Ellman's method, nonlinear regression, Lineweaver-Burk); settings: for Ki: estimated by nonlinear regression analysis, substrate ATCh; for type of inhibition: p < 0.05, apparent Vmax decreased, Km unchanged with increasing inhibitor concentration
T2 construct: purchased Sigma-Aldrich (Prague, Czech Republic)
T2 sequence (P22303 32-614): as the sequence (P22303 32-614) above
Method: […]. We used a kinetic assay in order to obtain information about the mode of inhibition and binding site of the target compounds. The mechanism of inhibition was analyzed by recording substrate concentration—enzymatic reaction rate curves in the presence of different concentrations of compounds 15 and 19. Analysis confirmed a non-competitive type of inhibition (p < 0.05) for both compounds. With increasing concentration of inhibitor, apparent Vmax decreased and Km remained unchanged. […] […]. Such a pattern of inhibition is also characteristic for donepezil and it may indicate prevailing interactions of the enzyme with PAS [36]. PAS of AChE is associated with the ability to induce Aβ aggregation, thus, compounds interacting with this region may inhibit such a process and could have additional benefit for the treatment of AD [37].
Figure 3 Steady-state inhibition of AChE hydrolysis of acetylthiocholine (ATCh) by compounds 15 and 19. […]. Lines were derived from a weighted least-squares analysis of data.
The kinetic study of AChE inhibition was performed by using Ellman’s method (described above). The type of inhibition was elucidated from the nonlinear regression analysis. Results for each type model of inhibition (competitive, noncompetitive, uncompetitive and mixed) were compared with sum-of-squares F-test. […]. Linear regression was used for calculation of Lineweaver-Burk plots. All calculations were performed using the GraphPad Prism software.

Structure (SMILES) | IC50 [1] [µM] | Selectivity for hAChE [1] | IC50 [2] [µM] | fold weaker inhibitor of hBChE related to tacrine [2] [fold] | fold weaker inhibitor of hAChE compared to tacrine [1] [fold] | Ki (AChE) [µM] | type of inhibition (AChE)
COc1ccc(NC(=O)NCCCCCCCCNc2c3c(nc4ccc(OC)cc24)CCCC3)cc1.O=C(O)C(O)C(O)C(=O)O [compound 22, 3-{8-[(7-Methoxy-1,2,3,4-tetrahydroacridin-9-yl)amino]octyl}-1-(4-methoxyphenyl)urea-2,3‑dihydroxy-succinate] | 2.14 ± 0.6 | 0.63 | 1.34 ± 0.2 | 16.8 |  |  | 
COc1ccc(NC(=O)NCCCNc2c3c(nc4ccc(OC)cc24)CCCC3)cc1.O=C(O)C(O)C(O)C(=O)O [compound 17, 3-{3-[(7-Methoxy-1,2,3,4-tetrahydroacridin-9-yl)amino]propyl}-1-(4-methoxyphenyl)urea-2,3‑dihydroxy-succinate] | 26.9 ± 5.9 | 0.59 | 15.9 ± 4.1 |  |  |  | 
COc1ccc(NC(=S)NCCCCNc2c3c(nc4ccc(OC)cc24)CCCC3)cc1.O=C(O)C(O)C(O)C(=O)O [compound 11, 3-{4-[(7-Methoxy-1,2,3,4-tetrahydroacridin-9-yl)amino]butyl}-1-(4-methoxyphenyl)thiourea-2,3‑dihydroxy-succinate] | 32.8 ± 9.9 | 0.18 | 6.04 ± 0.1 |  |  |  | 
COc1ccc(NC(=S)NCCCCCCCCNc2c3c(nc4ccc(OC)cc24)CCCC3)cc1.O=C(O)C(O)C(O)C(=O)O [compound 15, 3-{8-[(7-Methoxy-1,2,3,4-tetrahydroacridin-9-yl)amino]octyl}-1-(4-methoxyphenyl)thiourea-2,3‑dihydroxy-succinate] | 1.36 ± 0.4 | 7.53 | 10.2 ± 4.7 |  | 4.2 | 1.33 ± 0.125 | non-competitive
COc1ccc(NC(=S)NCCCCCNc2c3c(nc4ccc(OC)cc24)CCCC3)cc1.O=C(O)C(O)C(O)C(=O)O [compound 12, 3-{5-[(7-Methoxy-1,2,3,4-tetrahydroacridin-9-yl)amino]pentyl}-1-(4-methoxyphenyl)thiourea-2,3‑dihydroxy-succinate] | 4.9 ± 0.3 | 2.71 | 13.5 ± 0.7 |  |  |  | 
COc1ccc(NC(=O)NCCCCNc2c3c(nc4ccc(OC)cc24)CCCC3)cc1.O=C(O)C(O)C(O)C(=O)O [compound 18, 3-{4-[(7-Methoxy-1,2,3,4-tetrahydroacridin-9-yl)amino]butyl}-1-(4-methoxyphenyl)urea-2,3‑dihydroxy-succinate] | 13.8 ± 3.9 | 0.68 | 9.34 ± 0.1 |  |  |  | 
COc1ccc(NC(=S)NCCNc2c3c(nc4ccc(OC)cc24)CCCC3)cc1.O=C(O)C(O)C(O)C(=O)O [compound 9, 3-{2-[(7-Methoxy-1,2,3,4-tetrahydroacridin-9-yl)amino]ethyl}-1-(4-methoxyphenyl)thiourea-2,3‑dihydroxy-succinate] | 43.6 ± 2.1 | 0.02 | 1.03 ± 0.1 | 12.9 |  |  | 
COc1ccc(NC(=S)NCCCCCCNc2c3c(nc4ccc(OC)cc24)CCCC3)cc1.O=C(O)C(O)C(O)C(=O)O [compound 13, 3-{6-[(7-Methoxy-1,2,3,4-tetrahydroacridin-9-yl)amino]hexyl}-1-(4-methoxyphenyl)thiourea-2,3‑dihydroxy-succinate] | 10.3 ± 1.3 | 0.90 | 9.35 ± 0.1 |  |  |  | 
COc1ccc(NC(=S)NCCCCCCCNc2c3c(nc4ccc(OC)cc24)CCCC3)cc1.O=C(O)C(O)C(O)C(=O)O [compound 14, 3-{7-[(7-Methoxy-1,2,3,4-tetrahydroacridin-9-yl)amino]heptyl}-1-(4-methoxyphenyl)thiourea-2,3‑dihydroxy-succinate] | 3.96 ± 0.1 | 0.79 | 3.13 ± 0.3 |  |  |  | 
COc1ccc(NC(=O)NCCCCCNc2c3c(nc4ccc(OC)cc24)CCCC3)cc1.O=C(O)C(O)C(O)C(=O)O [compound 19, 3-{5-[(7-Methoxy-1,2,3,4-tetrahydroacridin-9-yl)amino]pentyl}-1-(4-methoxyphenyl)urea-2,3‑dihydroxy-succinate] | 1.35 ± 0.3 | 8.07 | 10.9 ± 1.6 |  | 4.2 | 0.453 ± 0.0251 | non-competitive
COc1ccc(NC(=O)NCCNc2c3c(nc4ccc(OC)cc24)CCCC3)cc1.O=C(O)C(O)C(O)C(=O)O [compound 16, 3-{2-[(7-Methoxy-1,2,3,4-tetrahydroacridin-9-yl)amino]ethyl}-1-(4-methoxyphenyl)urea-2,3‑dihydroxy-succinate] | 44.9 ± 1.4 | 0.27 | 11.9 ± 2.3 |  |  |  | 
COc1ccc(NC(=O)NCCCCCCCNc2c3c(nc4ccc(OC)cc24)CCCC3)cc1.O=C(O)C(O)C(O)C(=O)O [compound 21, 3-{7-[(7-Methoxy-1,2,3,4-tetrahydroacridin-9-yl)amino]heptyl}-1-(4-methoxyphenyl)urea-2,3‑dihydroxy-succinate] | 1.72 ± 0.3 | 0.98 | 1.69 ± 0.2 |  |  |  | 
COc1ccc(NC(=S)NCCCNc2c3c(nc4ccc(OC)cc24)CCCC3)cc1.O=C(O)C(O)C(O)C(=O)O [compound 10, 3-{3-[(7-Methoxy-1,2,3,4-tetrahydroacridin-9-yl)amino]propyl}-1-(4-methoxyphenyl)thiourea-2,3‑dihydroxy-succinate] | 6.36 ± 0.5 | 1.37 | 8.73 ± 0.1 |  |  |  | 
COc1ccc(NC(=O)NCCCCCCNc2c3c(nc4ccc(OC)cc24)CCCC3)cc1.O=C(O)C(O)C(O)C(=O)O [compound 20, 3-{6-[(7-Methoxy-1,2,3,4-tetrahydroacridin-9-yl)amino]hexyl}-1-(4-methoxyphenyl)urea-2,3‑dihydroxy-succinate] | 4.56 ± 0.9 | 1.26 | 5.75 ± 0.4 |  |  |  | 
